In patent US7432045B2 (priority 2003, dated 2008):
pEC50, pIC50: −log10 of the molar value. Where two headings read alike, the source gives them in different places. Peptide text beside a SMILES is read from it.

Assays:
HSV-1 KOS mutant hrR3 [1] = conditions: 25 μM peptide
MTS assay = conditions: human, CEMx174 cells (T-B hybridoma)
HSV-1 KOS = conditions: depending on concentration
HSV-1 KOS mutant hrR3 [2] = conditions: read-out: IC50 (lacZ+ cells)
HSV-1 KOS mutant hrR3 [3] = experiment: LacZ+ virus (hrR3) entry assay with pre-adsorbed virus (entry block); format: cell-based
H5 Avian Influenza virus = conditions: dog
HSV-1 KOS mutant hrR3 [4] = tested on: HSV-1 KOS mutant hrR3
HSV-1 KOS mutant hrR3 [5] = experiment: Inactivation of pre-adsorbed virus (virus inactivation); format: cell-based
hrR3 virions = experiment: Inactivation of virions in solution; format: cell-based, HSV-1; conditions: 37° C.
Description: Inactivation of virions: To assess the ability of peptides to inactivate virions, 3-4×10^6 pfu/mL of virus was mixed on ice with peptide in serum-free DMEM and incubated for 1 h at 4 or 37° C. Aliquots (10 μL) were diluted 1000-fold into peptide-free serum-supplemented DMEM at 23° C. and 50 μL aliquots were assayed in triplicate for infectivity in Vero cell cultures (dilution assay). Alternatively, 10 μL aliquots were diluted into 1 mL of ice-cold peptide-free serum-supplemented DMEM and the virus was pelleted as described above (centrifugation assay). Viral pellets were then resuspended in 250 μL serum-supplemented DMEM and 50 μL aliquots were assayed in triplicate for infectivity in Vero cell cultures.
Some of the virus diluted without the addition of NaCl was pelleted immediately (Control), while the rest of the diluted virus was stored at 4° C. and pelleted 19 h later. The virus was pelleted and assayed for infectivity as described in Example 1.

In the case of `CC(C)C[C@H](NC(=O)[C@H](C)NC(=O)[C@H](CC(C)C)NC(=O)[C@H](CC(C)C)NC(=O)[C@@H](NC(=O)[C@H](C)NC(=O)[C@@H]1CCCN1C(=O)[C@H](CC(C)C)NC(=O)[C@H](CC(C)C)NC(=O)[C@H](C)NC(=O)[C@@H](NC(=O)[C@H](C)NC(=O)[C@H](C)NC(=O)[C@H](CCCCN)NC(=O)[C@H](CCCCN)NC(=O)[C@H](CCCNC(=N)N)NC(=O)[C@@H](N)CCCNC(=N)N)C(C)C)C(C)C)C(=O)N[C@@H](CC(C)C)C(=O)N[C@@H](C)C(=O)N1CCC[C@H]1C(=O)O` [EB] (H-RRKKAAVALLPAVLLALLAP-OH), the “effect on development of lacZ+ cells when added immediately after citrate treatment” value (HSV-1 KOS mutant hrR3 [1]) was “no longer had any effect”, the pEC50 (MTS assay) was 4.30 and the “reduction of virus yields” value (HSV-1 KOS) was “up to eight orders of magnitude”. The “concentration at which cytotoxic effects were seen first” value (Vero cells) was 200 µM, the “cytotoxic effects (trypan blue) in cellular resistance experiments” value (Vero cells) was “No cytotoxic effects” and the pIC50 (HSV-1 KOS mutant hrR3 [2]; virus input 19 pfu/well) was 6.18. The pIC50 (HSV-1 KOS mutant hrR3 [2]; virus input 210 pfu/well) was 5.92, the pIC50 (HSV-1 KOS mutant hrR3 [2]; virus input 5700 pfu/well) was 4.96 and the “reduction of the number of lacZ+ cells” value (HSV-1 KOS mutant hrR3 [3]; 25 μM peptide, pre-adsorbed virus) was > 90%. The virus entry inhibited (HSV-1 KOS mutant hrR3 [3]; 50 μM, 1 hour periods between 1 and 4 hours post-infection) was 70-80%, the pIC50 (HSV-1 KOS mutant hrR3 [3]; FIG. 7B, read-out: inhibition of entry of pre-adsorbed virus IC50) was 4.82 and the pIC50 (HSV-1 KOS mutant hrR3 [3]; read-out: Entry Blocking Activity IC50) was 4.59 to 4.82. The “cytotoxic effects (trypan blue staining)” value (MDCK cells) was “No cytotoxic effects” and the pIC50 (H5 Avian Influenza virus) was 6.30.
In the case of `N=C(N)NCCC[C@H](NC(=O)CN)C(=O)N[C@@H](CCCCN)C(=O)N[C@@H](CCCCN)C(=O)N[C@@H](CCCNC(=N)N)C(=O)N[C@@H](CCCNC(=N)N)C(=O)N[C@@H](CCC(N)=O)C(=O)N[C@@H](CCCNC(=N)N)C(=O)N[C@@H](CCCNC(=N)N)C(=O)N[C@@H](CCCNC(=N)N)C(=O)N[C@@H](CS)C(=O)O` [TAT-C, NH2-GRKKRRQRRRC-COOH], the “inhibitory effect after 1 h at 32° C.” value (HSV-1 KOS mutant hrR3 [4]; 10 or 100 μM peptide) was “about 90%”, the “virus internalized after cultures were rinsed and shifted to 37° C.” value (HSV-1 KOS mutant hrR3 [4]; 10 or 100 μM peptide) was 25-33% and the “reversibility of the inhibitory effect after removal of peptide” value (HSV-1 KOS mutant hrR3 [4]; n50,51TAT-C 10 μM, TAT-C 10 or 100 μM) was “largely irreversible”. It also gave a pIC50 (HSV-1 KOS mutant hrR3 [5]; 33° C., read-out: Inactivation of Pre-Adsorbed Virus 33° C. IC50) of 4.96, a pIC50 (HSV-1 KOS mutant hrR3 [5]; 33° C., read-out: Virus Inactivation IC50 (pre-adsorbed virus)) of 4.96 and a pIC50 (HSV-1 KOS mutant hrR3 [5]; 33° C., read-out: virus inactivation IC50) of 4.96. It also gave a pIC50 (HSV-1 KOS mutant hrR3 [5]; 37° C., read-out: Inactivation of Pre-Adsorbed Virus 37° C. IC50) of 5.28, a pIC50 (HSV-1 KOS mutant hrR3 [3]; 33° C., read-out: Entry Block 33° C. IC50) of 5.52 and a pIC50 (HSV-1 KOS mutant hrR3 [3]; 33° C., read-out: Entry Block IC50) of 5.52. The pIC50 (HSV-1 KOS mutant hrR3 [3]; 33° C., read-out: inhibition of entry IC50) was 5.52, the pIC50 (HSV-1 KOS mutant hrR3 [3]; 37° C., read-out: Entry Block 37° C. IC50) was 5.51 and the “temperature dependence of inhibition of entry and virus inactivation” value (HSV-1 KOS mutant hrR3 [3]; FIGS. 16A, B) was “completely temperature-independent”. The pIC50 (hrR3 virions; dilution or centrifugation, read-out: inactivation of virions IC50) was ~4.12 and the pIC50 (hrR3 virions; read-out: Inactivation of Virions 37° C. IC50) was 4.00.
